Tests used:
Type in all cases: biochemical
[1] = target: T1, LRRK2(G2019S mutation, GST-LRRK2(amino acids 970-2527)) (Homo sapiens (Human), UniProt Q5S007, G2019S); assay: LRRK2 Km ATP LanthaScreen Assay; settings: Km ATP (184 μM ATP solution), G2019S LRRK2, mean IC50
In short: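 TR-FRET: GST-LRRK2 970-2527 G2019S (2.5 nM solution) preincubated 30 min with compound (98 μM top, 1:2.15 dilutions), then 800 nM fluorescein-LRRKtide and 184 μM ATP solution added for 60 min at room temperature in Tris pH 8.5 buffer. Stopped with EDTA and Tb anti-phospho-LRRKtide antibody; IC50 is a mean of several tests.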

[2] = tested on: kinases; assay: Kinase selectivity using Z'-LYTE or Adapta; settings: 1 μM of Example; for percent inhibition IRAK1: Adapta platform; for percent inhibition AURKB (Aurora B) / percent inhibition CDK1/cyclin B / percent inhibition CHEK2 (CHK2) / percent inhibition CLK2 / percent inhibition DYRK1A / percent inhibition JAK3 / percent inhibition MAPK1 (ERK2) / percent inhibition MAPK8 (JNK1): Z-LYTE platform
[3] = target: kinases (Homo sapiens, UniProt P15056, V600E); assay: Kinase selectivity using Z'-LYTE or Adapta; settings: 1 μM of Example; Z-LYTE platform
[4] = target: T1, LRRK2(G2019S mutation, GST-LRRK2(amino acids 970-2527)); assay: LRRK2 5 mM ATP LanthaScreen Assay
Experimental: The data presented for the 5 mM and Km ATP LanthaScreen™ Assay represents mean IC50 values based on several test results and may have reasonable. deviations depending on the specific conditions and reagents used. Reagents for the LRRK2 5 mM and Km ATP LanthaScreen™ Assay were purchased from Life Technologies Corporation.
LRRK2 5 mM ATP LanthaScreen™ Assay
a) 400 nl of a 1:2.15 serial dilution of test compound(98 μM top assay concentration) is spotted via Labcyte Echo to certain wells in a 384 well black, untreated plate. Control wells contain 400 nl of either DMSO or 400 nl of a known inhibitor in DMSO.
b) 10 μl of a 2.5 nM LRRK2(G2019S mutation, GST-LRRK2(amino acids 970-2527)) enzyme solution in 1× assay buffer(50 mM Tris pH 8.5, 10 mM MgCl2, 0.01% Brij-35, 1.0 mM EGTA, 2 mM DTT, 0.05 mM NaVO4) is added to all wells.
c) A 30 minute room temperature incubation is followed by addition of 10 μl of 800 nM fluorescein labeled LRRKtide peptide substrate and 10 mM ATP solution in 1× assay buffer to all wells.
d) After a 35 minute room temperature incubation, 20 μl of TR-FRET Dilution Buffer(Invitrogen PV3756B) containing 4 nM Tb-labeled anti-phospho LRRKtide antibody and 20 mM EDTA is added to all wells.
e) Plates are incubated at room temperature for 1 hour and read on an Envision™ multi-mode plate reader with LanthaScreen™ settings. Results are analysed using Assay Data Analyzer.

Sequence of kinases (Homo sapiens, UniProt P15056, V600E) (P15056 2-766 V600E limits assumed): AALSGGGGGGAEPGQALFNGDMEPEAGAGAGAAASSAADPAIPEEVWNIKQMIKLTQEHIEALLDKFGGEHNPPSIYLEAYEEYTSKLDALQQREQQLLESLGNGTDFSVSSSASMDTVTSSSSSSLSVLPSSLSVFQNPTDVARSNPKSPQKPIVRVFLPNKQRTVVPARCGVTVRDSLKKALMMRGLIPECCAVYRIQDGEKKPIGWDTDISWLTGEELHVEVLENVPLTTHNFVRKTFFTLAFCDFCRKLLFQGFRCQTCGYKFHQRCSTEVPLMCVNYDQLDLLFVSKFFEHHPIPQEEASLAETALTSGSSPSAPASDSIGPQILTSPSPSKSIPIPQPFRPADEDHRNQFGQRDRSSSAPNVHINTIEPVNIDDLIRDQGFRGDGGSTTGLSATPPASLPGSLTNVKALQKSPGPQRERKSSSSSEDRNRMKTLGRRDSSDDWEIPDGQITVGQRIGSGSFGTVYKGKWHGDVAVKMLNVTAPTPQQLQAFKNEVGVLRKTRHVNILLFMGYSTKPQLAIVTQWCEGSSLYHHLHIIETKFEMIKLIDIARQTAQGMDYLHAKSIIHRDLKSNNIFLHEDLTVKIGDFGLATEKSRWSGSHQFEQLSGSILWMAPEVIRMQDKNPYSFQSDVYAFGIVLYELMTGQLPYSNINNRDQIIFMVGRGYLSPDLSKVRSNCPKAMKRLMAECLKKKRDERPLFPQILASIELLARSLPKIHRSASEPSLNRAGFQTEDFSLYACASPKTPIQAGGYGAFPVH
T1 sequence (Q5S007 970-2527 G2019S): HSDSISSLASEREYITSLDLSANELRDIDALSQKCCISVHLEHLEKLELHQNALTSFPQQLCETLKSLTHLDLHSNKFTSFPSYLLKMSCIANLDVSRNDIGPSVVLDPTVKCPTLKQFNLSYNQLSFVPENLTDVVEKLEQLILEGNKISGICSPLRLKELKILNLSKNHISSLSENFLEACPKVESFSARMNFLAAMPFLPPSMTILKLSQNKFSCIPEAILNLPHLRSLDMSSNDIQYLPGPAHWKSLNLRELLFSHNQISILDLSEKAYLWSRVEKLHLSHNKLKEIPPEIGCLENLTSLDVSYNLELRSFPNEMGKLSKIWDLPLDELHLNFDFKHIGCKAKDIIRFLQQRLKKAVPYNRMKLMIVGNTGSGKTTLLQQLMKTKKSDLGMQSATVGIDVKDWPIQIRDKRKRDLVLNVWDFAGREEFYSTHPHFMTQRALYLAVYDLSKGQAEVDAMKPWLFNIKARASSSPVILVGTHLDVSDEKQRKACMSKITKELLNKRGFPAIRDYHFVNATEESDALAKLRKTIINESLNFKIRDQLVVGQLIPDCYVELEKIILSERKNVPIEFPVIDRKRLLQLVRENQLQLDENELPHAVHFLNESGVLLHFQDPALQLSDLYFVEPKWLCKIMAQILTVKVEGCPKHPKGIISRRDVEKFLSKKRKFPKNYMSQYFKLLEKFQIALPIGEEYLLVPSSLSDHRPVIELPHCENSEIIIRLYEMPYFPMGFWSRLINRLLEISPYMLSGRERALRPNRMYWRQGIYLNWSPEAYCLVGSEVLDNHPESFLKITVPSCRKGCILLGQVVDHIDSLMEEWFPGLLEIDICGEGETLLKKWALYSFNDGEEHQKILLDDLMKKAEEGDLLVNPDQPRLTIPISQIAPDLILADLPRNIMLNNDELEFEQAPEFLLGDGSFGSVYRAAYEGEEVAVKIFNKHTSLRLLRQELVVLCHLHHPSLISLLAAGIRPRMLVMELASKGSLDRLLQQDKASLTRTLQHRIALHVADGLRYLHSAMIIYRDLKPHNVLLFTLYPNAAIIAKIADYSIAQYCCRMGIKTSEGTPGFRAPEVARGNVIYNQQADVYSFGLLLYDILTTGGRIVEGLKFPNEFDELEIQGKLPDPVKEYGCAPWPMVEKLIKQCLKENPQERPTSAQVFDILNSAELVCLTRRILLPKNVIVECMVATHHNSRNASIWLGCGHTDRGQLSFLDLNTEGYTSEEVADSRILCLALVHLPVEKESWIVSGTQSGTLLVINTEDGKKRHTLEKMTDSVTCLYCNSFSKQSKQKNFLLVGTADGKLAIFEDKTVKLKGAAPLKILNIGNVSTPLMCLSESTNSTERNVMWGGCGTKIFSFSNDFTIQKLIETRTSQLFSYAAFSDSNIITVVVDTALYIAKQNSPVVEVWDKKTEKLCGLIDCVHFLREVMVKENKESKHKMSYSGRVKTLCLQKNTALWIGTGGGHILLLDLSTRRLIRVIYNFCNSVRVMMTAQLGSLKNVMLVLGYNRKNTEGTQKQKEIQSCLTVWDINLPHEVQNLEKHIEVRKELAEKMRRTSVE

CC(C)Oc1ccc2[nH]nc(-c3cc(N4CCO[C@H](C)C4)ncn3)c2c1 [Example D2]
IC50 [1]: 5.09 nM | percent inhibition IRAK1 [2]: −7% | percent inhibition AURKB (Aurora B) [2]: 9% | percent inhibition CDK1/cyclin B [2]: 7% | percent inhibition CHEK2 (CHK2) [2]: 1% | percent inhibition CLK2 [2]: 79% | percent inhibition DYRK1A [2]: 13% | percent inhibition JAK3 [2]: 8% | percent inhibition MAPK1 (ERK2) [2]: 5% | percent inhibition MAPK8 (JNK1) [2]: 28% | percent inhibition BRAF V599E [3]: −11% | IC50 [4]: 67 nM

CC(C)Oc1ccc2[nH]nc(-c3cc(N4CCOCC4)ncn3)c2c1 [Example D6]
IC50 [1]: 5.95 nM | percent inhibition IRAK1 [2]: −1% | percent inhibition AURKB (Aurora B) [2]: 16% | percent inhibition CDK1/cyclin B [2]: 7% | percent inhibition CHEK2 (CHK2) [2]: 7% | percent inhibition CLK2 [2]: 66% | percent inhibition DYRK1A [2]: 12% | percent inhibition JAK3 [2]: 5% | percent inhibition MAPK1 (ERK2) [2]: 7% | percent inhibition MAPK8 (JNK1) [2]: 28% | percent inhibition BRAF V599E [3]: 2% | IC50 [4]: 96 nM

CC(C)Oc1ccc2[nH]nc(-c3cc(N4CCN(CCF)CC4)ncn3)c2c1 [Example D15]
IC50 [1]: 5.5 nM | percent inhibition IRAK1 [2]: −3% | percent inhibition AURKB (Aurora B) [2]: 18% | percent inhibition CDK1/cyclin B [2]: 10% | percent inhibition CHEK2 (CHK2) [2]: 13% | percent inhibition CLK2 [2]: 70% | percent inhibition DYRK1A [2]: 30% | percent inhibition JAK3 [2]: 9% | percent inhibition MAPK1 (ERK2) [2]: 16% | percent inhibition MAPK8 (JNK1) [2]: 56% | percent inhibition BRAF V599E [3]: 28% | IC50 [4]: 34 nM

CC(C)Oc1cc2c(-c3cc(N4CCN(S(C)(=O)=O)CC4)ncn3)n[nH]c2cc1F [Example D24]
IC50 [1]: 3.09 nM | IC50 [4]: 28 nM

CC(C)Oc1cc2c(-c3cc(N4CCN(C)CC4)ncn3)n[nH]c2cc1F [Example D25]
IC50 [1]: 4.35 nM | percent inhibition IRAK1 [2]: 15% | percent inhibition AURKB (Aurora B) [2]: 14% | percent inhibition CDK1/cyclin B [2]: 17% | percent inhibition CHEK2 (CHK2) [2]: 8% | percent inhibition CLK2 [2]: 89% | percent inhibition DYRK1A [2]: 39% | percent inhibition JAK3 [2]: 8% | percent inhibition MAPK1 (ERK2) [2]: 0% | percent inhibition MAPK8 (JNK1) [2]: 56% | percent inhibition BRAF V599E [3]: 7%

CC(C)Oc1ccc2[nH]nc(-c3cc(N4CCC5(CCNC5=O)CC4)ncn3)c2c1 [Example D32]
IC50 [1]: 2.31 nM | IC50 [4]: 30 nM

CC(C)Oc1cc2c(-c3cc(N4C[C@@H](C)O[C@@H](C)C4)ncn3)n[nH]c2cc1F [Example D41]
IC50 [1]: 2.89 nM | IC50 [4]: 22 nM

COC[C@H](C)Oc1ccc2[nH]nc(-c3cc(N4CCOCC4)ncn3)c2c1 [Example H4]
IC50 [1]: 2.6 nM | IC50 [4]: 33 nM

COCCN1CCN(c2cc(-c3n[nH]c4ccc(OC(C)C)cc34)ncn2)CC1 [Example K10]
IC50 [1]: 4.9 nM | IC50 [4]: 24 nM

Source: patent US9416126B2, “Compounds inhibiting leucine-rich repeat kinase enzyme activity” (Merck Sharp & Dohme Corp., priority 2013, dated 2016)
